Test results from ChEMBL document CHEMBL1157982, “Isolation, identification, and enantioselective synthesis of octane-1,3,7-triol: determination of its absolute configuration” (J Nat Prod, 1999).

What was measured:
[1] = Toxicity in rat; format: organism-based; details: in vivo
[2] = tested on: Bacillus subtilis; assay: Antibacterial activity against Bacillus subtilis at 5 umol/L; format: functional

SMILES: CCCCC[C@@H](O)CCO
- LD50 [1]: 20000 mg/kg
- Activity [2]: 50%
